Several values for one entry are separate records, joined by “and”; a condition that tells them apart may be missing. Equal values may be shown once. Read-outs that look alike come from different tables or passages of the source.

These results are taken from PMC11674187, “Inhibitory Effects of Cenobamate on Multiple Human Cardiac Ion Channels and Possible Arrhythmogenic Consequences” (Biomolecules, 2024).

This test deals with T1, hCav1.2 (α1c + β2 + α2δ1) (Homo sapiens, UniProt Q13936).
T1 construct: host or cells: HEK293T
Briefly: Whole-cell patch-clamp on HEK293T cells, ICaL. The format is cell-based. How it is done: Experiments were performed on HEK293T cell lines with persistent/inducible expression of different human cardiac ion channel isoforms: hNav1.5 and hKv7.1 + minK (Anaxon AG, Bern, Switzerland), hCav1.2 (α1c + β2 + α2δ1) (B’SYS GmbH, Witterswil, Switzerland), and hKv11.1 (hERG) (Cytocentrics Bioscience GmbH, Rostock, Germany). The cell lines were grown in standard conditions (37 °C, 5% CO2, 90% humidity) in DMEM:F12 medium (D8900, Sigma-Aldrich, Burlington, MA, USA) buffered with 15 mM HEPES, containing 3.15 g/L D-glucose and 0.055 g/L sodium pyruvate, supplemented with 1.2 g/L sodium bicarbonate, 10% fetal bovine serum (F2442, Sigma-Aldrich, Burlington, MA, USA), 2 mM L-glutamine (G7513, Sigma-Aldrich, Burlington, MA, USA), 1% penicillin–streptomycin (P4333, Sigma-Aldrich, Burlington, MA, USA), and with specific antibiotics for selection of transfected cells or induction of gene expression according to manufacturers’ instructions. The medium was changed every 2–3 days and the cells were passed weekly upon detachment with trypsin–EDTA solution. All cell culture media and solutions were sterile filtered with 0.22 μm polyvinylidene fluoride filters. Ncyte® vCardiomyocytes (Ncardia, Leiden, The Netherlands) were cultured in 24-well plates precoated with bovine fibronectin, following manufacturer’s instructions. For the experiments, cardiomyocytes were detached as described previously and plated on ϕ 10 mm glass coverslips, like the other cell lines.
Manual whole-cell patch-clamp experiments were performed at room temperature, with equipment as described in previous studies. Pipettes were pulled from Clark borosilicate glass capillaries with inner filament (GC150F-10, Harvard Apparatus, Holliston, MA, USA) and had typical resistances of 2–3 MΩ. Recordings were performed with a WPC-100 resistive feedback amplifier (ESF electronic, Göttingen, Germany) or an Axopatch 200B amplifier (Axon Instruments—Molecular Devices, San Jose, CA, USA) connected to a Digidata 1322A interface driven by the pClamp 8.2 Clampex module (Axon Instruments, part of Molecular Devices, San Jose, CA, USA). For different types of ion channel, we applied specific voltage-clamp protocols as follows: • - For hERG, a standard two-step activation protocol was used: holding at −70 mV, a 100 ms step at −50 mV used as current reference for measurements, a 2 s depolarizing step at +40 mV, followed by a 2 s step at −50 mV to elicit the peak hERG current by rapid recovery from inactivation, repeated sweeps at 10 s intervals, plus specific protocols to assess the voltage dependence of activation and inactivation, as described in Thomet et al., 2021 [11]. • - For hKv7.1 + minK, a general two-step activation protocol was used: holding at −110 mV, a 250 ms step at −80 mV with a brief (50 ms) step at −90 mV at the middle to monitor seal quality, a 3000 ms depolarizing step at +60 mV, followed by a 1000 ms step at −50 mV; repeated sweeps at 20 s intervals. • - For hCav1.2, a pharmacology protocol with holding at −80 mV, a first 100 ms step at −50 mV and a second 200 ms step at 0 mV, repeated sweeps at 20 s intervals with drug application after 5 sweeps if current levels were steady, plus an activation–inactivation protocol with holding at −80 mV, 1000 ms depolarizing steps from −80 to +50 mV in 10 mV increments, followed by 250 ms steps at +10 mV and a return to −80 mV; 14 sweeps at 20 s intervals. • - For hNav1.5, multiple voltage protocols were used, including the following: • - A standard pharmacology protocol with holding at −90 mV, a 20 ms step at −110 mV for seal monitoring, a 40 ms activation step at −10 mV, and repeated sweeps at 1 s intervals. […]
Background: Patch clamp records ionic current or voltage across a cell membrane.

T1 sequence (Q13936 whole entry): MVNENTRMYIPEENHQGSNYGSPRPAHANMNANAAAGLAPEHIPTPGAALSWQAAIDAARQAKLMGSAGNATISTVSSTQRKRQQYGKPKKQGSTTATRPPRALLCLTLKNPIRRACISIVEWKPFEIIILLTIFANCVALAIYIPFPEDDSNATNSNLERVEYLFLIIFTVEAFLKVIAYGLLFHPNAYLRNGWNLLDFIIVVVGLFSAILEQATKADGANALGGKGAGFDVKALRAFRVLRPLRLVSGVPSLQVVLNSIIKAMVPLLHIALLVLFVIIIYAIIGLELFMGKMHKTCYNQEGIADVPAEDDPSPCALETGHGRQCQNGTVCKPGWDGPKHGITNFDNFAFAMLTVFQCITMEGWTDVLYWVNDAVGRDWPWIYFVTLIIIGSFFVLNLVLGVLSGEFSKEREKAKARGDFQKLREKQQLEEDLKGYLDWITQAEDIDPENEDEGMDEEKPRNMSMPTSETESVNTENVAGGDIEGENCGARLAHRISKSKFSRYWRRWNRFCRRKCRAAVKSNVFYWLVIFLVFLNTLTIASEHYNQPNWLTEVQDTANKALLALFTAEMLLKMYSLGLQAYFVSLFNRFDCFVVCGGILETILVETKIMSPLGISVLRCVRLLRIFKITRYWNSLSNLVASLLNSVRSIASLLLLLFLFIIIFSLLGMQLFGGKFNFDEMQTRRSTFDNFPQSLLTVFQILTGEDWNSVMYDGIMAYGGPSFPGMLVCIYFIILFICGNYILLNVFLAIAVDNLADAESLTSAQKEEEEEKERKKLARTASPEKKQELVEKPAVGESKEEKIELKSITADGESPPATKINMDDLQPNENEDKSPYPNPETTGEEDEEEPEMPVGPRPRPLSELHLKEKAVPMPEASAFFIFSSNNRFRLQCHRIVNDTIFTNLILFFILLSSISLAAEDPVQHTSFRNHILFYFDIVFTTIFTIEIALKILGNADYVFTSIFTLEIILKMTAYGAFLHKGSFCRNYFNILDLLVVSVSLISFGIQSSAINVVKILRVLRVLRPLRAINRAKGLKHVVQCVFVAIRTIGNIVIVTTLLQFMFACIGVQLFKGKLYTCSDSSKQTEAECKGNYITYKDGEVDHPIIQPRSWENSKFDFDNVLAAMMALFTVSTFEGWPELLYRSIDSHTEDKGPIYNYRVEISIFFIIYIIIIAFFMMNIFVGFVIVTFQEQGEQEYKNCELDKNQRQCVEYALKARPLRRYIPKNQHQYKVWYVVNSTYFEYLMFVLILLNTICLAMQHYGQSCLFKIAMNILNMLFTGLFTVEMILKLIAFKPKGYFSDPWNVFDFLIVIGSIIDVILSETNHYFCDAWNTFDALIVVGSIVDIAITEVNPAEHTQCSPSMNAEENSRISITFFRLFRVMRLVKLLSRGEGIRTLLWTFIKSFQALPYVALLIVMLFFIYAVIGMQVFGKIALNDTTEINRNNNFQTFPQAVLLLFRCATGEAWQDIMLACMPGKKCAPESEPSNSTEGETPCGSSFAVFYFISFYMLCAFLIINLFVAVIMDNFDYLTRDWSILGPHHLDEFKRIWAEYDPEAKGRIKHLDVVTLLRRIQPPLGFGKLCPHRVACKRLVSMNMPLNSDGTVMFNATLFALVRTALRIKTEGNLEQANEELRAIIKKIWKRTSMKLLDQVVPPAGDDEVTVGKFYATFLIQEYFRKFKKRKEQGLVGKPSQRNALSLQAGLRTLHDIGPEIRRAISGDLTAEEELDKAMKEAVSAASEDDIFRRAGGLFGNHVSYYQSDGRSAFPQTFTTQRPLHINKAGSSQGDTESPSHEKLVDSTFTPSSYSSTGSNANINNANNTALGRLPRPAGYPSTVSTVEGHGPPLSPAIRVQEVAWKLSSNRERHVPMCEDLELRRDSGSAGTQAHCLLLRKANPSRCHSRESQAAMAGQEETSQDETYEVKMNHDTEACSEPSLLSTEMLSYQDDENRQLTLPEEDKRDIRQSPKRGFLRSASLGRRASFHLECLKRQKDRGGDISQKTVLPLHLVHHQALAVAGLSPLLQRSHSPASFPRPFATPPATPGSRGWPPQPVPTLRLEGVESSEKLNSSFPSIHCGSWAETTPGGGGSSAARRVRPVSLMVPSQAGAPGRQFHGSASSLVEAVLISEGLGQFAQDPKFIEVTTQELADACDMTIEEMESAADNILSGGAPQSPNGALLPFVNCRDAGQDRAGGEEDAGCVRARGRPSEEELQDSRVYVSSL
T1 sequence (Q08289 whole entry partner): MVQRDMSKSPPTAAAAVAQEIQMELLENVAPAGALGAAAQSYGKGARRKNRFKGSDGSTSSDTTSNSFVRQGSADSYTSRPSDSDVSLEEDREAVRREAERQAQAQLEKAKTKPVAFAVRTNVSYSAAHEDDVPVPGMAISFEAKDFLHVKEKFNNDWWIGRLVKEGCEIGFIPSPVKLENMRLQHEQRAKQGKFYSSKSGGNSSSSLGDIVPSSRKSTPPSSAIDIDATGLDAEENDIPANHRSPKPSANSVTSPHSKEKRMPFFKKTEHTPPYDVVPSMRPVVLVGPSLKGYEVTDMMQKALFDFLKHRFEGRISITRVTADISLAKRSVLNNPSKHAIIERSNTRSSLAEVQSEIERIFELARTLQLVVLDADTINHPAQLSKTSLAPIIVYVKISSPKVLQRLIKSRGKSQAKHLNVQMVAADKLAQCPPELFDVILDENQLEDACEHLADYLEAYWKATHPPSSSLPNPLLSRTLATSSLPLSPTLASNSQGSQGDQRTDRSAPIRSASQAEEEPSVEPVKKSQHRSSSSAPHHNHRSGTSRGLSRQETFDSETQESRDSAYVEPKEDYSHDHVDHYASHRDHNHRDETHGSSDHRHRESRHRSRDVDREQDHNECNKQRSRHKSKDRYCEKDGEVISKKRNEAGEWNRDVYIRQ
T1 sequence (P54289 25-946 partner limits assumed): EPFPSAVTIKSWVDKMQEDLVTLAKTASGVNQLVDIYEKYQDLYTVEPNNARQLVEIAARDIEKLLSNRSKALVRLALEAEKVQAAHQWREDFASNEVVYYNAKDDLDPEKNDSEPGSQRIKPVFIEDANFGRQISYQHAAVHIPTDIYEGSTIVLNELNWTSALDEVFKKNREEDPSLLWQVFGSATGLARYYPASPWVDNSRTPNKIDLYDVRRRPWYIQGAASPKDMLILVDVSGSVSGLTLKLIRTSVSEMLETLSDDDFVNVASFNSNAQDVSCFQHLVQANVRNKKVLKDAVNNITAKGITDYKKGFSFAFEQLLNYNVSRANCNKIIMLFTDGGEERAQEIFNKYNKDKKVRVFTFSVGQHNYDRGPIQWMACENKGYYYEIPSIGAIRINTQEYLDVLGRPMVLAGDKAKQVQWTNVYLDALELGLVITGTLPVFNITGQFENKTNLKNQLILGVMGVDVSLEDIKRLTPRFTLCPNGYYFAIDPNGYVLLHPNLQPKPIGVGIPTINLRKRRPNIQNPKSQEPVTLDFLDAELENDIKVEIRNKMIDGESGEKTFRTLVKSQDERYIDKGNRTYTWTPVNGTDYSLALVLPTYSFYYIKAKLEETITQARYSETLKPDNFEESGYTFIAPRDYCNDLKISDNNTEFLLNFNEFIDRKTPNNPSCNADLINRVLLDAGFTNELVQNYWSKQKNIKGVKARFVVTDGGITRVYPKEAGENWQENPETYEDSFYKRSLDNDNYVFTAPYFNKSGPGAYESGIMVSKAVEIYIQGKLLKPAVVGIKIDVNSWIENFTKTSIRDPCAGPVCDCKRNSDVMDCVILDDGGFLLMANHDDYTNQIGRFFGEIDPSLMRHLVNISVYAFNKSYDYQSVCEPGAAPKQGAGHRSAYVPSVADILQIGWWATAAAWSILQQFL
T1 sequence (P54289 947-1103 partner limits assumed): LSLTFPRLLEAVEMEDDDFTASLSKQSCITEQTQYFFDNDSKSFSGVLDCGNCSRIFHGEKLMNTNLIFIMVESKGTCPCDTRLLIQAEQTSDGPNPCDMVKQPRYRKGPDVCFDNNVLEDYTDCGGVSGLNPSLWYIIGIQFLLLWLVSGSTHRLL

For the compound `NC(=O)O[C@@H](Cn1ncnn1)c1ccccc1Cl` [cenobamate], for the setting “HEK-293T, cenobamate 20 µM, read-out: % ICaL inhibition, mean (Table S5)”, the inhibition (usually the share of the control response that was lost under treatment) at 20 µM amounted to 6.65%. Moreover, the inhibition at 100 µM (HEK-293T, cenobamate 100 µM, read-out: % ICaL inhibition, mean (Table S5)) stood at 11.3% and the inhibition at 100 µM (HEK-293T, cenobamate 100 µM, read-out: % ICaL inhibition, single experiments (Table S5)) is 11.2%. Also, the inhibition at 200 µM was 34.5% (HEK-293T, cenobamate 200 µM, read-out: % ICaL inhibition, mean (Table S5)) and 39.3 ± 13.8% (HEK-293T, cenobamate 200 µM, step at 0 mV, initial set, mean (SD), n = 4, read-out: average inhibition of peak ICaL amplitude). Moreover, the inhibition at 400 µM by setting is: (HEK-293T, cenobamate 400 µM, read-out: % ICaL inhibition, mean (Table S5)) 42%; (HEK-293T, cenobamate 400 µM, read-out: % ICaL inhibition, single experiments (Table S5)) 39%. Also, the inhibition at 1000 µM (HEK-293T, cenobamate 1000 µM, read-out: % ICaL inhibition, mean (Table S5)) was determined as 65.3%. Further, the IC50 – broadly, the concentration that inhibits the measured activity by half – came out at 510 µM (ICaLIC50 (model script), value entered in C++ script) and 510 µM (apparent IC50 for hCav1.2 (ICaL) inhibition, unitary Hill coefficient). For the same compound, the “% ICaL inhibition, single experiments (Table S5)” value is 11.40% and 10.58% and 12.03% (cenobamate 100 µM); 41.25% and 47.37% and 40.40% (cenobamate 400 µM); 77.36% and 58.39% and 76.52% and 52.87% and 61.56% (cenobamate 1000 µM). For the same compound, the “average inhibition of peak ICaL amplitude” value (cenobamate 200 µM, step at 0 mV, initial set, mean (SD), n = 4) is recorded as 39.26 ± 13.78%.
